According to patent publication US20110166123A1, “NOVEL COMPOSITIONS AND METHODS OF USE” (priority 2008, published 2011):
Values joined by “and” are separate entries in the source; they are usually repeats but may differ in a detail not shown here. Equal values may be shown once. Marks after values point to notes of the source that are not given here.

How the values were obtained:
[1] = test system: human immunodeficiency virus type 1 (HIV-1); assay: microbe, parasite or virus in culture; assay type: cell-based; settings: Human immunodeficiency virus 1, HeLa, 48 h, HIV-1 luciferase reporter, HeLa cells, 48 hours after infection
[2] = Hepatocyte stability (Example 36), rat; settings: rat hepatocytes 1 million cells/mL, 37° C., 4 hours, LC-MS/MS
[3] = Hepatocyte stability (Example 36), human; settings: human hepatocytes 1 million cells/mL, 37° C., 4 hours, LC-MS/MS
[4] = Microsomal incubation (Method 1), human; assay type: in vitro ADME; settings: human liver microsomes, compound 10 μM, 1 mg protein/mL, NADPH 1 mM, 60 minutes at 37° C.
Description: (§1) Compound (10 μM) was incubated with rat, dog, cynomolgus monkey, and human liver microsomes (1 mg protein/mL) in a final volume of 1 mL in 2-mL Eppendorf tubes. The mixture containing enzymes, potassium phosphate buffer (100 mM, pH 7.4), and the compound was pre-incubated at 37° C. for 3 min. The reaction was initiated by the addition of NADPH (final concentration of 1 mM) and incubated for 60 minutes at 37° C. The reaction was terminated by the addition of 1 mL of acetonitrile. After centrifugation at 12000 rpm for 3 minutes, the supernatant was subjected to 15 minutes of concentration (N2 flow, 32° C.). The resulting final extract was transferred to clean vials and analyzed by HPLC.

[5] = Microsomal incubation (Method 1), dog; assay type: in vitro ADME; settings: dog liver microsomes; compound 10 μM, 1 mg protein/mL, NADPH 1 mM, 60 minutes at 37° C.
Description: as §1

[6] = Microsomal incubation (Method 1), monkey; assay type: in vitro ADME; settings: cynomolgus monkey liver microsomes; compound 10 μM, 1 mg protein/mL, NADPH 1 mM, 60 minutes at 37° C.
Description: as §1

[7] = Microsomal incubation (Method 1), rat; assay type: in vitro ADME; settings: rat liver microsomes; compound 10 μM, 1 mg protein/mL, NADPH 1 mM, 60 minutes at 37° C.
Description: as §1

[8] = Hepatocytes incubation (Method 1), human; assay type: in vitro ADME; settings: compound 10 μM, 37° C., 2 hrs
Description: (§2) Cryopreserved hepatocytes were thawed in a water bath at 37° C. and transferred to a 50-mL tube containing 45 mL of pre-warmed incubation medium (In VitroGRO HT medium). The tube was inverted 3 times to ensure resuspension of hepatocytes and centrifuged at 50 g at room temperature for 5 minutes. The supernatant was decanted without disturbing the pellet. The pellet of hepatocytes was resuspended in 1 mL of William's E medium and the viable cell counting was determined by the tryptan blue exclusion method.
(§3) The William's E medium was added to the suspension of the hepatocytes pellet to make a final density of 2 million cells/mL. Stock solution of the compound was prepared at the concentration of 1 mM and diluted to 10 μM with William's E medium. The culture plate was incubated at 37° C. under 5% carbon dioxide and 95% air atmosphere for 2 hrs. The metabolic reaction was terminated by transferring the contents of the well into a centrifuge tube containing 1 mL of 0.1% TFAA acetonitrile solution and then vortexing. After centrifugation, the supernatant was subjected to 15 minute of concentration (N2 flow, 32° C.). The resulted final extract was transferred to clean vials for HPLC analysis.

[9] = Hepatocytes incubation (Method 1), monkey; assay type: in vitro ADME; settings: compound 10 μM, 37° C., 2 hrs
Description: as §2, §3

[10] = Hepatocytes incubation (Method 1), rat; assay type: in vitro ADME; settings: compound 10 μM, 37° C., 2 hrs
Description: as §2, §3

[11] = CYP3A4 activity 3800 (pmol/mg protein)

## COc1nc2c(cc1NCc1c(F)cc(F)cc1F)c(=O)c(C(=O)O)cn2[C@H](CO)C(C)(C)C [Example 20NN, (S)-1-(1-hydroxy-3,3-dimethylbutan-2-yl)-7-methoxy-4-oxo-6-(2,4,6-trifluorobenzylamino)-1,4-dihydro-1,8-naphthyridine-3-carboxylic acid]
[1]
  EC50: < 10 nM
[2]
  % Remaining (rat): 46%
[3]
  % Remaining (human): 61%

## COc1nc2c(cc1Cc1cccc(Cl)c1F)c(=O)c(C(=O)O)cn2[C@H](CO)C(C)C [Example 1A, 6-(3-Chloro-2-fluoro-benzyl)-1-((S)-1-hydroxymethyl-2-methyl-propyl)-7-methoxy-4-oxo-1,4-dihydro-[1,8]naphthyridine-3-carboxylic acid]
[1]
  EC50: < 10 nM
[4]; [11]
  % Remaining, Human, Microsome: 101% and 96.1%
[4]; CYP3A4 activity 7800 (pmol/mg protein)
  % Remaining, Human, Microsome: 83.5%
[5]
  % Remaining, Dog, Microsome: 102%
[6]
  % Remaining, Monkey, Microsome: 66.3%
[7]
  % Remaining, Rat, Microsome: 38.1%
[8]
  % Remaining, Human, Hepatocyte: 89.6%
[9]
  % Remaining, Monkey, Hepatocyte: 72.3%
[10]
  % Remaining, Rat, Hepatocyte: 66.9%

## Cc1nnc(C(=O)NC(C)(C)c2nc(C(=O)NCc3ccc(F)cc3)c(O)c(=O)n2C)o1 [Raltegravir, raltegravir, reference compound]
[5]
  % Remaining, Dog, Microsome: 91.8%
[6]
  % Remaining, Monkey, Microsome: 94.7%
[7]
  % Remaining, Rat, Microsome: 105%
[8]
  % Remaining, Human, Hepatocyte: 32.4%
[9]
  % Remaining, Monkey, Hepatocyte: 20.0%
[10]
  % Remaining, Rat, Hepatocyte: 43.3%

## COc1nc2c(cc1NCc1c(F)cc(F)cc1F)c(=O)c(C(=O)O)cn2[C@H](CO)C(C)C [Example 20AA, (S)-1-(1-hydroxy-3-methylbutan-2-yl)-7-methoxy-4-oxo-6-(2,4,6-trifluorobenzylamino)-1,4-dihydro-1,8-naphthyridine-3-carboxylic acid]
[1]
  EC50: < 10 nM
[2]
  % Remaining (rat): 43%
[3]
  % Remaining (human): 75%

## COc1cc2c(cc1Cc1cccc(Cl)c1F)c(=O)c(C(=O)O)cn2[C@H](CO)C(C)C [Example 30A, reference compound]
[4]; [11]
  % Remaining, Human, Microsome: 40.5 (3800)* NA %
[5]
  % Remaining, Dog, Microsome: 83.8 NA %
[6]
  % Remaining, Monkey, Microsome: 4.1 NA %
[7]
  % Remaining, Rat, Microsome: 6.7 NA %
[2]
  % Remaining (rat): 29%
[3]
  % Remaining (human): 54%

## CC(C)(C)[C@@H](CO)n1cc(C(=O)O)c(=O)c2cc(NCc3ccc(F)cc3)c(Cl)cc21 [Example 26E, (S)-7-chloro-6-(4-fluorobenzylamino)-1-(1-hydroxy-3,3-dimethylbutan-2-yl)-4-oxo-1,4-dihydroquinoline-3-carboxylic acid]
[1]
  EC50: > 100 nM

## COc1nc2c(cc1NCc1ccccc1)c(=O)c(C(=O)O)cn2[C@H](CO)C(C)C [Example 20O, (S)-6-(benzylamino)-1-(1-hydroxy-3-methylbutan-2-yl)-7-methoxy-4-oxo-1,4-dihydro-1,8-naphthyridine-3-carboxylic acid]
[1]
  EC50: > 100 nM

## COc1nc2c(cc1NCc1cccc(Cl)c1Cl)c(=O)c(C(=O)O)cn2[C@H](CO)C(C)C [Example 20L, (S)-6-(2,3-dichlorobenzylamino)-1-(1-hydroxy-3-methylbutan-2-yl)-7-methoxy-4-oxo-1,4-dihydro-1,8-naphthyridine-3-carboxylic acid]
[1]
  EC50: > 100 nM

## COc1cc2c(cc1NCc1c(F)cc(F)cc1F)c(=O)c(C(=O)O)cn2[C@H](CO)C(C)C [Example 21B, (S)-1-(1-hydroxy-3-methylbutan-2-yl)-7-methoxy-4-oxo-6-(2,4,6-trifluorobenzylamino)-1,4-dihydroquinoline-3-carboxylic acid]
[1]
  EC50: < 10 nM

## CC(C)(C)[C@@H](CO)n1cc(C(=O)O)c(=O)c2cc(OCc3c(F)cc(F)cc3F)ccc21 [Example 23C, (S)-1-(1-hydroxy-3,3-dimethylbutan-2-yl)-4-oxo-6-(2,4,6-trifluorobenzyloxy)-1,4-dihydroquinoline-3-carboxylic acid]
[1]
  EC50: 10 to 100 nM

## O=C(O)c1cn(CCO)c2ncc(Cc3cccc(Cl)c3F)cc2c1=O [Example 4D]
[1]
  EC50: > 100 nM

## CCCn1cc(C(=O)NN)c(=O)c2c(N)nc(SC)nc21 [Example 7C]
[1]
  EC50: > 100 nM

## O=C(O)c1cn([C@H](CO)C2CCCCC2)c2cnc(Cc3cccc(Cl)c3F)cc2c1=O [Example 5M]
[1]
  EC50: 10 to 100 nM

## CC(C)(C)[C@@H](CO)n1cc(C(=O)O)c(=O)c2cc(Cc3cccc(Cl)c3F)c(OCCO)nc21 [Example 2E]
[1]
  EC50: < 10 nM

## COc1cc2c(cc1OCc1c(F)cc(F)cc1F)c(=O)c(C(=O)O)cn2[C@H](CO)C(C)(C)C [Example 29B, (S)-1-(1-hydroxy-3,3-dimethylbutan-2-yl)-7-methoxy-4-oxo-6-(2,4,6-trifluorobenzyloxy)-1,4-dihydroquinoline-3-carboxylic acid]
[1]
  EC50: 10 to 100 nM

## CCOc1nc2c(cc1Cc1cccc(Cl)c1F)c(=O)c(C(=O)O)cn2[C@H](CO)C(C)(C)C [Example 2C]
[1]
  EC50: < 10 nM

## COc1nc2c(cc1NCc1ccc(Cl)cc1)c(=O)c(C(=O)O)cn2[C@H](CO)C(C)C [Example 20J, (S)-6-(4-chlorobenzylamino)-1-(1-hydroxy-3-methylbutan-2-yl)-7-methoxy-4-oxo-1,4-dihydro-1,8-naphthyridine-3-carboxylic acid]
[1]
  EC50: > 100 nM
